Read-outs that look alike come from different tables or passages of the source.
Columns and labels:
[1] = system: NCI-H1781 (HER2 exon 20 G776VC mutation); assay: Growth inhibition GI50 in vitro (CCK8/MTT, 72 h); type: cell-based; details: Homo sapiens, NCI-H1781; Table 16; 1000 nM to 0.03 nM serial dilution; read-out: GI50 H1781 (HER2 G776VC)
Procedure: Human lung adenocarcinoma cell line Calu-3 (ATCC) was cultured with 1×MEM complete medium (10% FBS, 1% double-antibiotics, 1% NEAA (Gibco), 2 mM glutamine and 1 mM of sodium pyruvate). Human breast cancer cell line SK-BR-3 was cultured with McCOY'S5A complete medium (10% FBS). Human colon cancer cell line SNU1040 (HER2 V777M positive) (ATCC) and human bronchoalveolar adenocarcinoma cell line NCI-H1781 (expressing HER2 exon 20 G776VC mutation) (ATCC) were cultured with 1×RPMI1640 complete medium (10% FBS), respectively.
(§1) Adherent cells were digested with 0.25% pancreatin-EDTA (Gibco). The suspension cells were collected by centrifugation. The supernatant was discard and the cell pellet was resuspended and counted. Different cell concentrations (5˜10×10^4 cells/mL) were prepared according to the growth cycle of each cell line and then seeded on a 96-well plate (Corning), 100 μL/well. The cells were incubated over night at 37° C., 5% CO2. The compounds were added to the cells on the second day with 2 wells in parallel. The final concentration of organic solvent shall not exceed 1%. The cells were continually incubated for 72 h, and then subjected to MTT assay.
(§2) The present compounds and the reference compounds were dissolved with DMSO (Sigma), respectively. […] The storage concentration of compounds was 10 mM and kept at −20° C. They were diluted by 2 times or 10 times with serial dilution before using.
(§3) Dojindo CCK8 reagent kit was used as MTT assay. […] FC meter was used as microplate reader.
(§4) Adherent cell culture medium was discard and immediately replaced with fresh prepared medium which contains 10% CCK8 reagent (100 μL/well). For the suspension cells, CCK8 was directly added to 10% of the final concentration. The cells were continually incubated for 1˜4 h. When the color of control wells turned to dark yellow, the absorption value was measured at OD450 nm. The cell growth rate was calculated according to the following formula: cell growth rate (%)=100*(T−T0)/(C−T0), T=optical density of drug treatment cell well—optical density of blank control well; T0=optical density of cell well before drug treatment—optical density of blank control well; C=optical density of cell well of solvent control group—optical density of blank control well. The concentration value of 50% inhibition of cell growth (GI50) was calculated. The experiment was independently repeated 1˜3 times, and subject to biological statistical analysis.
Furthermore, the present compounds (99, 136, 205, 211, 212, 213, 216, 229, 230, 231, 232, 233 and 236) were selected to carry out growth inhibition test for HER2/ERBB2 gene amplified or high expressed or mutant tumor cells. Afatinib and AZD9291 were used for references as second- and third-generation inhibitors of EGFR.
Each compound started at 1000 nM as an initial concentration and was diluted by 2 times with serial dilution to 0.03 nM. The GI50 value of each compound was calculated according to Test Example 1.3.

PC-9 (EGFR dE746-A750) = assay: Growth inhibition GI50 in vitro (CCK8/MTT, 72 h); type: cell-based, human; details: Homo sapiens
H1975 (EGFR L858R/T790M) = assay: Growth inhibition GI50 in vitro (CCK8/MTT, 72 h); type: cell-based, human; details: Homo sapiens, NCI-H1975
N87 (HER2 Amp) = assay: Growth inhibition GI50 in vitro (CCK8/MTT, 72 h); type: cell-based, human; details: Homo sapiens
A549 (EGFR WT) = assay: Growth inhibition GI50 in vitro (CCK8/MTT, 72 h); type: cell-based, human; details: Homo sapiens, A549
H292 (EGFR WT) = assay: Growth inhibition GI50 in vitro (CCK8/MTT, 72 h); type: cell-based; details: Homo sapiens, NCI-H292; Table 15; 1000 nM to 0.03 nM serial dilution; read-out: GI50 H292 (EGFR WT)
Excerpt: EGFR wild type cell lines: human epidermal cancer cell line A431 (EGFR WT, amplification and high expression, from Shanghai Cell Bank of Chinese Academy of Sciences and ATCC), NSCLC cell lines NCI-H460 (EGFR WT, Kras G61H and PI3KCA E545K mutants, ATCC) and NCI-H1299 (EGFR WT, ATCC), melanoma cell line A375 (EGFR WT and BRAF V600E mutant, from Shanghai Cell Bank of Chinese Academy of Sciences, ATCC), human lung cancer cell line NCI-H292 (EGFR WT, from human lung mucoepidermoid carcinoma/lymphatic metastasis, purchased from Shanghai Cell Bank of Chinese Academy of Sciences) were cultured with 1×RPMI1640 complete medium which was supplement with 10% FBS. NSCLC cell line A549 (EGFR WT and Kras G12S mutant, from Shanghai Cell Bank of Chinese Academy of Sciences) was cultured with 1×Ham'S F12K complete medium which was supplement with 10% FBS, 1% double-antibiotics and 2 mM glutamine.
as §1, with “The” for “Adherent cells were digested with 0.25% pancreatin-EDTA (Gibco). The”
as §2, §3
as §4, with “The concentration value of 50% inhibition of cell growth (GI50) was calculated.” left out

[2] = system: PC-9ER (EGFR delE746-A750/T790M); assay: Growth inhibition GI50 in vitro (CCK8/MTT, 72 h); type: cell-based, human; details: Homo sapiens, PC-9/ER; EGFR mutant cell line; range of GI50; read-out: GI50 PC9ER
HCC827 (EGFR dE746-A750) = assay: Growth inhibition GI50 in vitro (CCK8/MTT, 72 h); type: cell-based, human; details: Homo sapiens, HCC827; EGFR mutant cell line; range of GI50; read-out: GI50 HCC827
AU565 (Her2 amp) = assay: Growth inhibition GI50 in vitro (CCK8/MTT, 72 h); type: cell-based, human; details: Homo sapiens, AU565; HER2 positive cell line; range of GI50; read-out: GI50 AU-565
H1975 tumor cells = assay: In vivo tumor growth inhibition, xenograft; set-up: species or system Bab/c nude mice; details: Mus musculus, NCI-H1975, po, 456 h; 25 mg/kg intragastric once daily, day 19; read-out: TGI (%) H1975
Excerpt: (§5) Tumor xenograft models of immunodeficient mice are an effective tool to test the antitumor activity of the compound in vivo. Generally, the effectiveness of human tumor cell xenograft is positively correlated with the clinical treatment of human tumor. Bab/c immunodeficient mouse is one of the most commonly used xenograft animals with human tumor cells. In order to test whether the present compounds can inhibit the in vivo growth of the tumor cells expressing EGFR mutantion or HER2/ErbB2 overexpression, H1975, PC-9 and NCI-N87 cell lines were used in the experiments. When H1975, PC-9 and NCI-N87 cells were in growth logarithmic phase, they were digested with pancreatin. An appropriate amount of 1×RPMI1640 culture medium (serum-free) was added to stop digestion. The cells were collected to a 50 ml centrifuge tube (Corning), and centrifuged at 1700 rm for 3 min. The supernatant was discard, then the cells were suspended with 1×RPMI1640 culture medium and count the number. […] cells/mL was prepared and then placed on ice. 5˜10×10^6 (0.2 ml) cells were inoculated subcutaneously on the right side of the back of 6˜8 week old female Bab/c nude mice (about 20 g in weight). When the tumor average volume growed to 100˜200 mm^3, the mice were randomly divide into groups (3-6 mice per group), and marked by ear pierced tags and weighted. The test compounds and the reference compound (with a purity over 99% and individual impurity not higher than 0.2%) were formulated to emulsion suspension with CM (30% polyethylene glycol 400, 0.5% Tween-80 and 2.5% propylene glycol) respectively. Intragastric administration was continued once daily at a dosage of 25 mg/kg (0.1 ml/10 g mouse). The tumor was measured 3 times per week. When the average volume of the tumor in CM control group was up to 1500 mm^3 or after administration for 30 days, the experiment was ended.
(§6) The volume of tumor (V) was calculated as V=½*a*b^2 (a represents length of tumors, b represents width of tumors). Tumor growth inhibition (TGI) was calculated as: TGI (%)=100−(VT−VT0)/(VC−VC0)*100%; where VT0 and VT are the tumor volumes of the beginning and finish days of dosed groups; and VC0 and VC are the tumor volumes of the beginning and finish days for the control group, respectively.

PC-9 tumor cells = assay: In vivo tumor growth inhibition, xenograft; set-up: species or system Bab/c nude mice; details: Mus musculus, po, 456 h; 25 mg/kg intragastric once daily, day 19; read-out: TGI (%) PC-9
Excerpt: as §5, §6

[3] = system: H1299 (EGFR wt, Nras Q61K); assay: Growth inhibition GI50 in vitro (CCK8/MTT, 72 h); type: cell-based, human; details: Homo sapiens, NCI-H1299; EGFR wild type cell line; range of GI50; read-out: GI50 H1299
[4] = system: A431 (EGFR WT, amplification and high expression); assay: Growth inhibition GI50 in vitro (CCK8/MTT, 72 h); type: cell-based, human; details: Homo sapiens, A-431; EGFR wild type cell line; range of GI50; read-out: GI50 A431
[5] = system: H460 (EGFR wt, Kras G61H); assay: Growth inhibition GI50 in vitro (CCK8/MTT, 72 h); type: cell-based, human; details: Homo sapiens, NCI-H460; EGFR wild type cell line; range of GI50; read-out: GI50 H460
SK-BR-3 (Her2 amp) = assay: Growth inhibition GI50 in vitro (CCK8/MTT, 72 h); type: cell-based, human; details: Homo sapiens, SK-BR-3; HER2 positive cell line; range of GI50; read-out: GI50 SK-BR-3
[6] = Table 13, 72 h, read-out: Range of GI50 PC-9 (EGFR dE746-A750)
[7] = Table 15, 1000 nM to 0.03 nM serial dilution, read-out: GI50 PC-9 (EGFR dE746-A750)
[8] = Table 13, 72 h, read-out: Range of GI50 H1975 (EGFR L858R/T790M)
[9] = Table 15, 1000 nM to 0.03 nM serial dilution, read-out: GI50 H1975 (EGFR L858R/T790M)
[10] = Table 13, 72 h, read-out: Range of GI50 N87 (HER2 Amp)
[11] = Table 16, 1000 nM to 0.03 nM serial dilution, read-out: GI50 N87 (HER2 amp)
[12] = Table 13, 72 h, read-out: Range of GI50 A549 (EGFR WT)
[13] = Table 15, 1000 nM to 0.03 nM serial dilution, read-out: GI50 A549 (EGFR WT)

Compound	GI50 [1]	GI50 (PC-9 (EGFR dE746-A750); [6])	GI50 (PC-9 (EGFR dE746-A750); [7])	GI50 (H1975 (EGFR L858R/T790M); [8])	GI50 (H1975 (EGFR L858R/T790M); [9])	GI50 (N87 (HER2 Amp); [10])	GI50 (N87 (HER2 Amp); [11])	GI50 (A549 (EGFR WT); [12])	GI50 (A549 (EGFR WT); [13])	GI50 (H292 (EGFR WT))	also measured
C=CC(=O)Nc1cc(Nc2nccc(-n3ccc4c(OC)cc(F)cc43)n2)c(OC)cc1N(C)CCN(C)C [Compound 212, N-(5-(4-(4-methoxyl-6-fluoro-1H-indol-1-yl)-pyrimidin-2-ylamino)-2-(2-(dimethylamino-ethyl)-methyl-amino)-4-methoxyl-phenyl)-acrylamide]	0.0156 µM	< 0.01 µM	0.00682 µM	< 0.01 µM	0.00856 µM	< 0.01 µM	0.00267 µM	> 1 µM	> 1 µM	> 1 µM	–
C=CC(=O)Nc1cc(Nc2cc(-c3cn(C)c4ccccc34)ncn2)c(OC)cc1N1CCC(N2CCN(C)CC2)CC1 [Compound 176, N-(4-methoxyl-5-(6-(1-methyl-1H-indol-3-yl)-pyrimidin-4-ylamino)-2-(4-(4-methylpiperazin-1-yl)-piperidin-1-yl)-phenyl)-acrylamide]	–	–	–	–	–	–	–	–	–	–	GI50 [2]: 0.01 to 0.1 µM; GI50 (PC-9 (EGFR dE746-A750); EGFR mutant cell line, range of GI50, read-out: GI50 PC-9): < 0.01 µM; GI50 (H1975 (EGFR L858R/T790M); EGFR mutant cell line, range of GI50, read-out: GI50 H1975): 0.01 to 0.1 µM; GI50 (HCC827 (EGFR dE746-A750)): < 0.01 µM; GI50 (AU565 (Her2 amp)): 0.1 to 1 µM; inhibition in vivo at 25 mg/kg (H1975 tumor cells): 98.2%; inhibition in vivo at 25 mg/kg (PC-9 tumor cells): 98.6%; GI50 (N87 (HER2 Amp); HER2 positive cell line, range of GI50, read-out: GI50 N87): 0.01 to 0.1 µM; GI50 [3]: > 1 µM; GI50 [4]: 0.1 to 1 µM; GI50 (A549 (EGFR WT); EGFR wild type cell line, range of GI50, read-out: GI50 A549): > 1 µM; GI50 [5]: > 1 µM; GI50 (SK-BR-3 (Her2 amp)): 0.01 to 0.1 µM
C=CC(=O)Nc1cc(Nc2nccc(-n3ccc4c(OC)cc(Cl)cc43)n2)c(OC)cc1N(C)CCN(C)C [Compound 213]	0.0156 µM	< 0.01 µM	0.00783 µM	< 0.01 µM	0.0098 µM	< 0.01 µM	0.00195 µM	> 1 µM	> 1 µM	> 1 µM	–
C=CC(=O)Nc1cc(Nc2nccc(-n3ccc4c(OC)cc(Br)cc43)n2)c(OC)cc1N(C)CCN(C)C [Compound 211, N-(5-(4-(4-methoxyl-6-bromo-1H-indol-1-yl)-pyrimidin-2-ylamino)-2-(2-(dimethylamino-ethyl)-methyl-amino)-4-methoxyl-phenyl)-acrylamide]	0.0315 µM	< 0.01 µM	0.00789 µM	0.01 to 0.1 µM	0.0196 µM	< 0.01 µM	0.00676 µM	> 1 µM	> 1 µM	> 1 µM	–
